Source: patent publication US8278072B1, “Method for synthesis of sialylated products using reversible sialylation” (Health Research, Inc., priority 2007, dated 2012)
Marks after values point to notes of the source that are not given here.

How the values were obtained:
Assay type in all cases: biochemical
[1] = target: T1, ST3Gal-II (Rattus norvegicus, UniProt Q11205); assay: Exchange of radiolabeled sialyl residues in bovine brain gangliosides (TLC); details: bovine brain ganglioside mixture, CMP-[9-3H]NeuAc or CMP-[14C]NeuAc
T1 construct: purchased Calbiochem
T1 sequence (Q11205 1-350): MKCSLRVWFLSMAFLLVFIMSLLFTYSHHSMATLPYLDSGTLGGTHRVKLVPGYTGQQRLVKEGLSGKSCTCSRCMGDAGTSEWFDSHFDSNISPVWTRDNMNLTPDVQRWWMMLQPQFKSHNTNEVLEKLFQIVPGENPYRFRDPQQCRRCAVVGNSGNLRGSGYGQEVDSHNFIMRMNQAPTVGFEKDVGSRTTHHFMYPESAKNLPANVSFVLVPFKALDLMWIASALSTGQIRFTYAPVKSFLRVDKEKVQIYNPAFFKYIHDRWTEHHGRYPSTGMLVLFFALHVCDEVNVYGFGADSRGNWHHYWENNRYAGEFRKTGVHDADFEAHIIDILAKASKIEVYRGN
From the text: Rat recombinant ST3Gal-II (α2,3(0)ST) was purchased from Calbiochem. Three different lots of ST3Gal-II purchased from Calbiochem and used in this study yielded similar results. CMP-NeuAc was obtained from Sigma. All enzymatic sialylation reactions were typically carried out in NaCa Codylate buffer pH6.0 in presence of enzyme acceptor CMP-[9-^3H]NeuAc or (NEN-DuPont) CMP[^14C]NeuAc. The concentration of total CMP-NeuAc was adjusted in individual reactions by supplementing with non-radioactive CMP-NeuAc. Products formed were separated using different chromatograph procedures. • a) Gel chromatography on Biogel P2 and P6 columns: A Biogel P2 column or Biogel P6 column (Fine Mesh; 1.0×116.0 cm) was used with 0.1 M pyridine acetate (pH5.4) as the eluent at room temperature. […] The first peak of radioactivity emerging in this void volume was collected and lyophilized to dryness. […]
Both [9-^3H] and [^14C] sialic acid labeled bovine brain ganglioside mixtures were subjected to TLC using CHcl3:CH3OH:0.2% aqueous CaCl2 (v/v 60:40:9) as the solvent system. The radioactivities were located on the TLC plates by scraping silica gel from 0.5 cm width segments of the TLC plates and then counting the radioactivity after soaking silica in 2.0 ml water by scintillation counting. […]

[2] = target: T2, ST3Gal-III (Rattus norvegicus, UniProt Q02734); assay: Donor specificity for reverse sialylation, ST3Gal-III; details: 0.05 mM donor, 0.8 mM 5′-CMP
T2 construct: purchased Calbiochem
T2 sequence (Q02734 1-374): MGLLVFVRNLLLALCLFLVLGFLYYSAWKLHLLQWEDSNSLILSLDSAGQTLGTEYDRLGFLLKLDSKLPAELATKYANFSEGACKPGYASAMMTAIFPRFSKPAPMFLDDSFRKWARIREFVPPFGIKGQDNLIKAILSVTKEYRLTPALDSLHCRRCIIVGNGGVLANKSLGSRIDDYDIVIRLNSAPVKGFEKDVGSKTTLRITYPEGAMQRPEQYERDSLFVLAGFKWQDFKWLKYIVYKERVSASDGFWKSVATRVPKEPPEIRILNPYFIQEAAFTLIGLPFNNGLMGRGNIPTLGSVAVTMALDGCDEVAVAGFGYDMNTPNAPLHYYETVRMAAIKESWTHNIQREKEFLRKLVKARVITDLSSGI
From the text: (§1) We determined if reverse sialylation was more pronounced for ST3Gal-II in comparison to other sialyltransferases. Thus two other cloned rat sialyltransferases ST3Gal-III (or α2,3(N)ST) and ST6Gal-I (or α2,6(N)ST) (14) were examined. For these studies, we generated two molecules: i) [9-^3H]NeuAcα2,6Galβ1,4GlcNAcβ-O—Al (Al-Allyl) was made by the reaction of Galβ1,4GlcNAcβ-O—Al and CMP-[9-^3H]NeuAc in the presence of α2,6sialyltransferase, ST6Gal-I. (The radioactive product was separated using Biogel P2 column using a protocol similar to that described above.); and ii) [9-^3H]NeuAcα2,3Galβ1,4 GlcNAcβ-O—Al was similarly produced by reacting Galβ1,4GlcNAcβ-O—Al and CMP-[9-^3H]NeuAc in the presence of α2,3sialyltransferase ST3Gal-III. […] However, it is efficiently sialylated by both ST3Gal-III and ST6Gal-I. The ability of these two radiolabeled molecules ([14] and [15]) to act as [9-^3H]NeuAc donors was assayed in studies (Table IV) where the compounds were mixed with excess 5′-CMP, enzyme and acceptors with benzyl aglycan group. C18 cartridges were then used to measure the extent of [9-^3H]NeuAc transferred to acceptor using reaction scheme-II. Because all acceptors used in this table are efficiently sialylated by enzymes listed in the adjacent columns, these experiments essentially measure the amount of CMP-NeuAc formed using particular donor-enzyme pairs.
(§2) Thus, reverse sialylation takes place with ST3Gal-II.

[3] = target: T1, ST3Gal-II; assay: Donor specificity for reverse sialylation, ST3Gal-II; details: 0.05 mM donor, […] 5′-CMP, acceptor 5 mM D-Fuc(1,3GalNAc(-O-Bn, 3 mU ST3Gal-II)); zero = slightly below background
From the text: as §1, with “pairs. […]” for “pairs.”

[4] = target: T3, ST6Gal-I (Rattus norvegicus, UniProt P13721); assay: Donor specificity for reverse sialylation, ST6Gal-I; details: 0.05 mM donor, 0.8 mM 5′-CMP, 3 mU ST6Gal-I
T3 construct: purchased Calbiochem
T3 sequence (P13721 1-403): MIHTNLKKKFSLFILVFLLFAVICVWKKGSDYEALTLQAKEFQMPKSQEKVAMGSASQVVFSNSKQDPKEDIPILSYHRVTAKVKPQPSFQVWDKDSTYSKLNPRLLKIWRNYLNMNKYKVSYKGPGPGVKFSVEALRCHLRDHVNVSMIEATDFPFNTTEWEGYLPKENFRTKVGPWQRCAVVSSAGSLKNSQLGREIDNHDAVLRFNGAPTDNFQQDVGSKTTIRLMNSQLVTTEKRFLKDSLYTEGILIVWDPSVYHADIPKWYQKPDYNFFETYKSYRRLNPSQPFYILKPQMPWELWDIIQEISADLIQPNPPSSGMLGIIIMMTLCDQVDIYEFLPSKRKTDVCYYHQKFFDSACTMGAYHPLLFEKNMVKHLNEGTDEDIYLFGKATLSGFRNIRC
From the text: as §1, §2

For GD1a, the “Exchange of sialyl residues with CMP-sialic acid by ST3Gal-II” value [1] was “exchangeable”.

For GT1b, the “Exchange of sialyl residues with CMP-sialic acid by ST3Gal-II” value [1] was “exchangeable”.

Substance “[9-^3H]NeuAcα2,3Galβ1,4 GlcNAcβ-O—Al [[15]]” has a Radiolabeled acceptor/product formed ([2]; acceptor 2.5 mM Gal(1,4GlcNAc(1,3Gal(1,4GlcNAc(-O-Bn, 3 mU ST3Gal-III))))) of 24 CPM, a Radiolabeled acceptor/product formed ([2]; acceptor 2.5 mM Galβ1,4GlcNAcβ1,6(Galβ1,3)GalNAcα-O-Bn, 3 mU ST3Gal-III) of 27 CPM and a Radiolabeled acceptor/product formed ([2]; acceptor 2.5 mM Galβ1,4GlcNAcβ-O-Bn, 3 mU ST3Gal-III) of 5 CPM. For the same substance, the Radiolabeled acceptor/product formed [3] was <0* CPM.

For “[9-^3H]NeuAcα2,6Galβ1,4GlcNAcβ-O—Al [[14]]”, the Radiolabeled acceptor/product formed [3] was <0* CPM, the Radiolabeled acceptor/product formed ([4]; acceptor 2.5 mM Galβ1,4GlcNAcβ1,3Galβ1,4GlcNAcβ-O-Bn) was 45 CPM and the Radiolabeled acceptor/product formed ([4]; acceptor 2.5 mM Galβ1,4GlcNAcβ1,6(Galβ1,3)GalNAcα-O-Bn) was 36 CPM. For the same substance, the Radiolabeled acceptor/product formed ([4]; acceptor 2.5 mM Galβ1,4GlcNAcβ-O-Bn) was 129 CPM.
